The term GI50 denotes the concentration at which growth is held to half of that of the control.

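1) Cells in 96-well plates. 2) Compound, 48 h, 5 concentrations. 3) Linear interpolation between surrounding doses. 4) Unreached endpoint = highest concentration. GI50 marks 50% less growth.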 Activity calls are given as the source filed them. No stated cut-off is given here; in the data, active = GI50 up to about 1.1 µM and inactive = higher.

Consider eight molecules from ChEMBL document CHEMBL1201862, “PubChem BioAssay data set” (2004).

Some test systems named below: SN12C; IGROV-1; SK-MEL-28; COLO 205; SF-268; A498; LOX IMVI; SR; NCI-H226; UACC-257; HL-60; SNB-19; SNB-78; NCI-H23; UACC-62; 786-0; NCI-H522; T47D; MDA-N; DU-145.
Common to all, as to assay: DTP human tumour cell line panel, 48 h

As to `O=C(O)/C(Cl)=C(\Cl)C(=O)NC1C2CC3CC(C2)CC1C3` (stereo unspecified), the GI50 in the experiment on SN12C, in the experiment with IGROV-1, in the experiment with SK-MEL-28, with COLO 205, with SF-268 and in the experiment on A498 was > 100 µM (inactive) each time. The GI50 with LOX IMVI, in the experiment with SR, in the experiment on NCI-H226, with UACC-257, in the experiment with HL-60 and in the experiment with SNB-19 was > 100 µM (inactive) each time. For the same molecule, the GI50 in the experiment with SNB-78, in the experiment with NCI-H23, with UACC-62, in the experiment on 786-0 and in the experiment with NCI-H522 was > 100 µM (inactive) throughout.
On to `C1CCNCC1.S=C(S)N1CCCCC1`, for which the GI50 was 64.6 µM (inactive) with SN12C; 5.96 µM (inactive) with IGROV-1; 48.6 µM (inactive) with SK-MEL-28; 75.7 µM (inactive) in the experiment on SF-268; 36.7 µM (inactive) in the experiment on A498; 60.5 µM (inactive) in the experiment on LOX IMVI. Also, the GI50 in the experiment with SR is 0.46 µM (active); with NCI-H226, 192 µM (inactive); with T47D it was 91 µM (inactive); in the experiment on UACC-257, 28.4 µM (inactive); in the experiment on HL-60, 0.307 µM (active); in the experiment with SNB-19, 149 µM (inactive). Also, the GI50 in the experiment on SNB-78 was 100 µM (inactive); with NCI-H23, 62.2 µM (inactive); in the experiment on MDA-N, 13.1 µM (inactive); with DU-145 it was 140 µM (inactive); in the experiment with UACC-62 it was 0.601 µM (active); in the experiment on 786-0, 97.3 µM (inactive). The GI50 with NCI-H522 is 0.276 µM (active).
Consider `COC(=O)c1nc(-c2ccc(Cl)c(Cl)c2)nc2ccc(Cl)cc12`, for which the GI50 in the experiment with SN12C was > 100 µM (inactive); with IGROV-1 it was 94.4 µM (inactive); in the experiment on SK-MEL-28, > 100 µM (inactive); with COLO 205, > 100 µM (inactive); with SF-268, 92.9 µM (inactive); in the experiment on A498, 73.1 µM (inactive). For the same molecule, the GI50 is > 100 µM (inactive) in the experiment with SR; > 100 µM (inactive) in the experiment on UACC-257; > 100 µM (inactive) in the experiment on HL-60; 44.1 µM (inactive) in the experiment on SNB-19; 6.59 µM (inactive) with SNB-78; 68.5 µM (inactive) in the experiment with NCI-H23. The GI50 was 87.3 µM (inactive) with UACC-62, 27.5 µM (inactive) in the experiment with 786-0 and > 10 µM (inactive) in the experiment on NCI-H522.
As for `Cc1cn(C2CC(OC3CCCCO3)C(CO)O2)c(=O)[nH]c1=O` (stereo unspecified), the GI50 in the experiment with SN12C, in the experiment on IGROV-1, with SK-MEL-28, with COLO 205, with SF-268 and in the experiment with A498 was > 100 µM (inactive) in each case. The GI50 with LOX IMVI, in the experiment with SR, in the experiment on NCI-H226, with UACC-257, with HL-60 and in the experiment on SNB-19 was > 100 µM (inactive) in each case. Besides, the GI50 in the experiment with SNB-78, in the experiment with NCI-H23, in the experiment with 786-0 and in the experiment with NCI-H522 was > 100 µM (inactive) in each case.
As for `CC(=O)OC12c3ccccc3C1CCCCCC21OCCCO1` (stereo unspecified), the GI50 in the experiment with SN12C, in the experiment on IGROV-1, in the experiment with SK-MEL-28, with COLO 205, in the experiment with SF-268 and in the experiment with A498 was > 100 µM (inactive) in each case. Also, the GI50 in the experiment with LOX IMVI, with SR, with NCI-H226, in the experiment with HL-60, in the experiment with SNB-19 and in the experiment with SNB-78 was > 100 µM (inactive) each time. In addition, the GI50 with NCI-H23, with UACC-62, with 786-0 and with NCI-H522 was > 100 µM (inactive) throughout.
As for `C[Si](C)(C)/C=C\CCO`, the GI50 in the experiment with SN12C, with IGROV-1, in the experiment on SK-MEL-28, with COLO 205, with SF-268 and with A498 was > 100 µM (inactive) each time. In addition, the GI50 with LOX IMVI, in the experiment on SR, with UACC-257, in the experiment with HL-60, with SNB-19 and in the experiment on SNB-78 was > 100 µM (inactive) each time. For the same molecule, the GI50 with NCI-H23, in the experiment with UACC-62, in the experiment with 786-0 and in the experiment with NCI-H522 was > 100 µM (inactive) each time.
Take `Nc1ncnc2c1ncn2CCOC(c1ccccc1)P(=O)(O)O` (stereo unspecified): the GI50 in the experiment on SN12C, with IGROV-1, in the experiment with SK-MEL-28, in the experiment with COLO 205, in the experiment with SF-268 and in the experiment on A498 was > 100 µM (inactive) throughout. Besides, the GI50 in the experiment with LOX IMVI, in the experiment on SR, with NCI-H226, in the experiment with UACC-257, in the experiment on HL-60 and in the experiment on SNB-19 was > 100 µM (inactive) throughout. For the same molecule, the GI50 in the experiment with SNB-78, in the experiment with NCI-H23, with UACC-62, with 786-0 and with NCI-H522 was > 100 µM (inactive) in each case.
With `COc1ccc2c(c1[N+](=O)[O-])CC[C@@H]1[C@@H]2CC[C@]2(C)C(=O)CC[C@@H]12`, the GI50 was > 25 µM (inactive) in the experiment with SN12C; > 18 µM (inactive) with IGROV-1; 20.7 µM (inactive) with SK-MEL-28; 21.8 µM (inactive) with COLO 205; > 25 µM (inactive) in the experiment on SF-268; > 25 µM (inactive) in the experiment on A498. The GI50 in the experiment on LOX IMVI is > 25 µM (inactive); in the experiment with SR, > 1000 µM (inactive); in the experiment with NCI-H226, 23.1 µM (inactive); in the experiment on T47D it was > 25 µM (inactive); with UACC-257, > 25 µM (inactive); in the experiment on HL-60, 24.5 µM (inactive). Moreover, the GI50 with SNB-19 was 24.2 µM (inactive); in the experiment with SNB-78 it was 24.7 µM (inactive); in the experiment on NCI-H23 it was > 25 µM (inactive); in the experiment with MDA-N, > 925 µM (inactive); with DU-145, > 25 µM (inactive); in the experiment with UACC-62, 18.3 µM (inactive). In addition, the GI50 was 210 µM (inactive) in the experiment with 786-0 and > 25 µM (inactive) in the experiment on NCI-H522.
